Several values for one entry are separate records, joined by “and”; a condition that tells them apart may be missing. Equal entries are not always repeated.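 Results reflect a 48-hour exposure of cells in 96-well plates to compound at five concentrations. Abbreviation: GI50, concentration required for 50% inhibition of growth. TGI denotes the concentration required for complete inhibition of growth.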
Tests used:
Experiment in all cases: NCI anticancer screen, dose series, 48 h
A498 renal = tested on: A498 renal
HCC-2998 colon = tested on: HCC-2998 colon
HL-60(TB) leukemia = tested on: HL-60(TB) leukemia
HOP-92 NSCLC = tested on: HOP-92 NSCLC
HS 578T breast = tested on: HS 578T breast
NCI-H460 lung = tested on: NCI-H460 lung
PC-3 prostate = tested on: PC-3 prostate
RPMI-8226 leukemia = tested on: RPMI-8226 leukemia
SK-MEL-2 melanoma = tested on: SK-MEL-2 melanoma
UACC-62 melanoma = tested on: UACC-62 melanoma

SMILES | GI50 (A498 renal) | TGI (A498 renal) | GI50 (HCC-2998 colon) | TGI (HCC-2998 colon) | GI50 (HL-60(TB) leukemia) | TGI (HL-60(TB) leukemia) | GI50 (HOP-92 NSCLC) | TGI (HOP-92 NSCLC) | GI50 (HS 578T breast) | TGI (HS 578T breast) | GI50 (NCI-H460 lung) | TGI (NCI-H460 lung) | GI50 (PC-3 prostate) | TGI (PC-3 prostate) | GI50 (RPMI-8226 leukemia) | TGI (RPMI-8226 leukemia) | GI50 (SK-MEL-2 melanoma) | TGI (SK-MEL-2 melanoma) | GI50 (UACC-62 melanoma) | TGI (UACC-62 melanoma)
C[C@@H](Oc1cc(-n2cnc3ccc(OC[C@@H](O)CO)cc32)sc1C(N)=O)c1ccccc1Cl | 0.148 µM | 1.2 µM | 0.0848 µM | > 25 µM | 0.0684 µM | 0.869 µM | 0.765 µM | > 16.4 µM | 0.171 µM | 5.31 µM | 0.227 µM | > 25 µM | 0.126 µM | > 25 µM | 1.53 µM | > 25 µM | 4.76 µM | 11.1 µM | 0.107 µM | > 25 µM
Nc1c(F)cc(-c2nc3cc(F)ccc3[se]2)cc1Br | 5.4 µM | 36.9 µM | 0.0477 µM | 0.35 µM | > 100 µM | > 100 µM | 0.526 µM | 19.4 µM | 44.7 µM | > 100 µM | 0.0189 µM | > 35.2 µM | 14.5 µM | > 100 µM |  | > 100 µM | 75 µM | > 100 µM | 1.06 µM | > 100 µM
CCn1ccc(NS(=O)(=O)c2ccc(N)cc2)nc1=O | > 100 µM | > 100 µM | > 100 µM | > 100 µM | > 100 µM | > 100 µM | > 100 µM | > 100 µM | 33.8 µM | > 100 µM | > 100 µM | > 100 µM | > 100 µM | > 100 µM | > 100 µM | > 100 µM | > 100 µM | > 100 µM | > 100 µM | > 100 µM
Cc1ccc(S(=O)(=O)N2CCc3ccc(O)c4c3C2Cc2ccc3c(c2-4)OCO3)cc1 (centres undefined) | 0.898 µM | 7.09 µM | 1.56 µM | 5.24 µM | 0.398 µM | 5.56 µM | 0.417 µM | 3.51 µM | 1.06 µM | > 50.6 µM | 0.539 µM | 7.53 µM | 0.808 µM | 19.5 µM | 0.959 µM | 5.08 µM | 1.34 µM | 7.33 µM | 0.577 µM | 9.41 µM
CCN(Cc1ccc(F)cc1)c1ccc(CO)c(OC)c1 | 0.331 µM | 1.37 µM | 21.9 µM | > 60.5 µM | 16 µM | 46.4 µM | 7.29 µM | 37.2 µM | 14.9 µM | > 100 µM | 23.2 µM | > 100 µM | 13.3 µM | 33.9 µM | 15.9 µM | 50.5 µM | 11.9 µM | 27.7 µM | 4.14 µM | 17.3 µM
COc1cc2c(cc1C)NC(=O)/C2=C\c1c[nH]c2ccccc12 | 11.2 µM | 26.9 µM | 21.7 µM | 71.1 µM | 15.9 µM | 45.5 µM | 10.2 µM | 29.9 µM | 14.5 µM | 47.9 µM | 4.93 µM | 41.9 µM | 12.2 µM | 31.5 µM | 5.95 µM | 63 µM | 4.04 µM | 25 µM | 13.3 µM | 28.4 µM
CN(C)c1ccc(N=C2C=CC(=O)c3ccccc32)cc1 | 12 µM | 25.2 µM | 5.05 µM | 16.7 µM | 2.15 µM | 4.52 µM | 5.06 µM | 18.7 µM | 1.97 µM | 6.09 µM | 1.98 µM | 4.86 µM | 2.66 µM | 19.8 µM | 2.92 µM | 19.7 µM | 3.5 µM | 11 µM | 1.71 µM | 3.24 µM
Cc1ccc(S(=O)(=O)Nc2ccc(-c3cc(-c4cccc(F)c4)c(C#N)c(N)n3)cc2)cc1 | 3.7 µM | 16.2 µM | 1.72 µM | 3.28 µM | 1.87 µM | 6.07 µM | 1.06 µM | 2.37 µM | 2.28 µM | 7.48 µM | 3.53 µM | 12.6 µM | 2.19 µM | 7.56 µM | 2.21 µM | 8.92 µM | 1.96 µM | 4.22 µM | 1.52 µM | 3.44 µM
CCC[CH2][Pb]([Cl])([CH2]CCC)[CH2]CCC | 0.0483 µM | 0.148 µM | 0.0439 µM | 0.136 µM | 0.0232 µM | 0.0444 µM | 0.058 µM | 0.196 µM | 0.0317 µM | 0.0913 µM | 0.0177 µM | 0.0417 µM | 0.0355 µM | 0.119 µM | 0.0157 µM | 0.0531 µM | 0.0229 µM | 0.0724 µM | 0.0459 µM | 0.112 µM
C#Cc1cccc(NC(=O)c2ccc(NC(=O)CCl)cc2)c1 | > 82.5 µM | > 82.5 µM | > 82.5 µM | > 82.5 µM | 15.7 µM | 45 µM | 11.4 µM | 26.4 µM | 27.9 µM | > 82.5 µM | 29.2 µM | > 82.5 µM | 15.4 µM | 60.4 µM | 14.7 µM | 44.1 µM | 69.8 µM | > 82.5 µM | 36.9 µM | > 82.5 µM
COCc1c(-c2ccc(NC(=O)Nc3cc(C(F)(F)F)ccc3F)c(F)c2)c2c(N)ncnn2c1CN1CCOCC1 | 0.0166 µM | 0.248 µM | 2.84 µM | 7.33 µM | 3.46 µM | > 10 µM | 0.382 µM | 5.97 µM | 0.138 µM | 0.733 µM | 2.24 µM | 9.74 µM | 2.88 µM | > 10 µM | 1.91 µM | 7.85 µM | 1.07 µM | 2.58 µM | 1.34 µM | > 10 µM
COc1cccc2c1C(=O)c1c(O)c3c(c(O)c1C2=O)CC(O)(C(=O)CO)CC3OC1CC(N)C(O)C(C)O1 (centres undefined) | 19 µg/mL and 33.8 µg/mL | 75 µg/mL and > 150 µg/mL | 37.2 µg/mL and 26 µg/mL | 75 µg/mL and 122 µg/mL | 2.84 µg/mL and 26.4 µg/mL | 75 µg/mL and > 150 µg/mL | 23.9 µg/mL and 7.86 µg/mL | 75 µg/mL and 127 µg/mL | 33.8 µg/mL | 75 µg/mL | 0.709 µg/mL and 0.986 µg/mL | 75 µg/mL and 27.3 µg/mL | 37.2 µg/mL and 52.2 µg/mL | 75 µg/mL and > 150 µg/mL | 7.24 µg/mL and 13.2 µg/mL | 75 µg/mL and 112 µg/mL | 24.1 µg/mL and 44.3 µg/mL | 75 µg/mL and 138 µg/mL | 7.54 µg/mL and 18.6 µg/mL | 27.8 µg/mL and 62 µg/mL

From PubChem BioAssay (NCI)
